Data published in patent US8338420B1, “Treatment of Parkinson's disease and enhancement of dopamine signal using PDE 10 inhibitor” (Mitsubishi Tanabe Pharma Corporation, priority 2002, dated 2012).

Tests used:
[1] = tested on: neurons of corpus striatum; experiment: Change in intracellular cAMP in primary cultured neurons of corpus striatum; type: cell-based, Wistar rat
Description: (1) Primary culture of neurons of corpus striatum Female Wistar rats on day 14 or day 15 of pregnancy were purchased from Japan SLC, Co. Ltd., and fetuses were taken out on day 18 of pregnancy. From the fetus, the brain was excised, and stored on ice-cold Leibovitz's L-15 medium (available from GIBCO) or on DMEM/F-12 medium (available from GIBCO). In the same medium, dura matter was removed and corpus striatum was collected. This striatum part was treated by trypsin to diffuse neurons, and the neurons were diluted and diffused in DMEM medium containing 10% bovine fetal serum. These neurons were inoculated in 48-well plate coated with 0.01% poly-L-lysine (available from Sigma) (2×10^5 cells/well) and cultured. On the next day, the medium was changed to Neurobasal medium (available from GIBCO), containing 50 fold-diluted B-27 supplement (available from GIBCO), and then, half of the medium was replaced on day 4, 7 and 9 of culture, to continue culture.
As in the above (1), neurons were cultured, and on day 10 of culture, the medium was removed, and then, a test compound (PDE10 inhibitors, etc.) diluted with Hank's balanced salt solution were added, and incubated at 37° C. for 15 minutes. Following that, forskolin (final concentration of 1 μM) or dopamine (final concentration of 100 nM) or D1 agonist (SKF82958 Sigma) (final concentration of 3 nM, 10 nM, 30 nM) was added thereto, and further incubated at 37° C. for 15 minutes.
Intracellular cAMP was measured using cAMP EIA kit available from Amersham Biosciences. Accordingly, after removing the reaction mixture, lysis buffer 1B (attached to cAMP EIA kit) was added to stop the reaction, and to lead cytolysis, and intracellular cAMPs were extracted. An amount of cAMPs in the extract was measured according to a protocol attached to the cAMP EIA kit.

marmoset MPTP model = experiment: Marmoset MPTP model, effect on L-dopa efficacy; type: in vivo; conditions: 0.3 mg/kg or 1 mg/kg, i.v., together with L-dopa, versus vehicle with L-dopa
Description: Using marmoset MPTP models, effects of test compound on pharmaceutical efficacy of L-dopa administration were tested as follows.
About 16 weeks before carrying out the tests, marmosets were administered with MPTP (1-methyl-4-phenyl-1,2,3,6-tetrahydropyridine) (2.5 mg/kg, i.v.), according to the method described in the literature (Fukuzaki et al., Pharmacol. Biochem. Behav., vol. 67 No. 1, pp. 121-129, September 2000), to degenerate dopaminergic neurons in the brain, and individuals showing parkinsonian symptoms were used.
Using these marmosets (age 3-4 years, bodyweight 300-400 g), the following three kinds of tests were performed. […]
After administration of test compound (PDE10 inhibitor) (or vehicle) and L-dopa+benserazide, each individual was transferred to an activity cage equipped with four photo cell sensor units, and observation was continued for 6 hours at longest. For each individual, locomotor activity and motor disability score were evaluated in every 10-minute interval.
Motor disability was assessed according to the following 7 evaluation items, and total score of the 7 items were regarded as the motor disability score. […]

**Q.** What does the source list for COc1ccc(-c2cc(N3CCCC3)nc(/C=C/c3nc(-n4ccnc4)c4ccccc4n3)n2)cc1OC [Compound A, 2-{(E)-2-[4-(1-imidazolyl)-quinazolin-2-yl]}ethenyl-4-(3,4-dimethoxy)phenyl-6-(pyrrolidin-1-yl)pyrimidine]?
**A.** intracellular cAMP increase caused by dopamine stimulus in neuron ([1]; compound concentration 1 μM, dopamine 100 nM): enhanced intracellular cAMP increase caused by dopamine stimulus; intracellular cAMP increase caused by D1 agonist (SKF82958) stimulus in neuron ([1]; compound concentration 10 μM, 1 μM): enhanced intracellular cAMP increase caused by D1 agonist; intracellular cAMP increase caused by forskolin stimulus in neuron ([1]; compound concentration 10 μM, 1 μM, forskolin 1 μM): enhanced intracellular cAMP increase caused by forskolin stimulus; effects of L-dopa to alleviate symptoms (locomotor activity and motor disability score) (marmoset MPTP model): enhanced and/or prolonged duration of effects of L-dopa to alleviate symptoms
